Results reported in patent publication US20250262279A1, “DOSE REGIMEN FOR LONG-ACTING GLP1/GLUCAGON RECEPTOR AGONISTS” (Boehringer Ingelheim International GmbH, priority 2021, published 2025).
Where two headings read alike, the source gives them in different places.

Experiments:
[1] = Example 1 Phase I titration study in obesity/overweight: safety and tolerability; conditions: Ex.1 Part B
Excerpt: Blinded within dose groups, randomised, placebo-controlled
• Male patients (Part A); male and female patients (Part B) • Age 18 to <70 years • BMI 27 to <40 kg/m^2 • Body weight of at least 70 kg for women and 80 kg for men • Stable body weight, defined as no more than 5% change within 3 months prior to screening
Further criteria of interest: • AEs (including clinically relevant findings from the physical examination and assessment of local tolerability) • Safety laboratory tests • 12-lead ECG • Vital signs (blood pressure, pulse rate) • Continuous ECG (including mean daily heart rate) • Assessment of local tolerability by the investigator • The cumulative number [N (%)] of patients withdrawn from up-titration by up-titration scheme and week
Descriptive statistics were calculated for all endpoints. […] No formal interim analysis was conducted. Data from the completed 6-week cohorts were analysed before database lock for internal decision-making.

[2] = first-in-man Phase I single-rising-dose study, adverse events; assay type: in vivo, human
Protocol: Compound I was recently studied in a first-in-man Phase I single-rising-dose study. In this study, a dose of 0.3 mg led to ‘mild loss of appetite’ in 33% of healthy subjects. This specific AE increased to 50% in the 0.5 mg dose group. Dose escalation to 1.2 mg was associated with 83% of the subjects experiencing moderate to severe nausea for 1 to 6 days and mild to severe vomiting.

[3] = Example 2: plasma pharmacokinetics; assay type: in vivo; conditions: human, sc, read-out: AUC0-168 (gMean)
Excerpt: In Table 9, only the gMean PK parameters of subjects who followed the planned dose rising scheme are included. Following subcutaneous administration of Compound I, the gMean plasma AUC0-168 and Cmax increased with further weekly or twice weekly dosing.

[4] = Example 3: safety (AEs, laboratory, ECG, vital signs, NASH scores); assay type: in vivo, human
Protocol: • Semaglutide • Dose: 0.25, 0.25, 0.25, 0.25, 0.5, 0.5, 0.5, 0.5, 1.0 mg (weeks 9−16) once weekly • Mode of administration: Solution for injection
Safety endpoints included Columbia-Suicide Severity Rating Scale (C-SSRS) and various electrocardiograms (ECG) assessments. Safety was assessed based on adverse events (AEs), adverse event of special interest (AESIs), clinical laboratory assessments, vital signs, and physical examination. AESIs were pre-specified in the protocol as pancreatitis and hepatic injury.
Analyses of safety were descriptive.

SMILES: CC[C@H](C)[C@H](NC(=O)[C@H](Cc1ccccc1)NC(=O)[C@H](CC(=O)O)NC(=O)[C@H](CCCCN)NC(=O)[C@H](C)NC(=O)[C@H](C)NC(=O)[C@H](CCCNC(=N)N)NC(=O)[C@H](CCC(=O)O)NC(=O)[C@H](CC(=O)O)NC(=O)[C@H](CC(C)C)NC(=O)[C@H](Cc1ccc(O)cc1)NC(=O)[C@H](CCCCN)NC(=O)[C@H](CO)NC(=O)[C@H](Cc1ccc(O)cc1)NC(=O)[C@H](CC(=O)O)NC(=O)[C@H](CO)NC(=O)[C@@H](NC(=O)[C@H](Cc1ccccc1)NC(=O)[C@@H](NC(=O)CNC(=O)[C@H](CCC(N)=O)NC(=O)C1(NC(=O)[C@@H](N)Cc2c[nH]cn2)CCC1)[C@@H](C)O)[C@@H](C)O)C(=O)N[C@@H](CCCCNC(=O)CNC(=O)CNC(=O)[C@H](CO)NC(=O)CNC(=O)[C@H](CO)NC(=O)CNC(=O)CC[C@H](NC(=O)CCCCCCCCCCCCCCCCC(=O)O)C(=O)O)C(=O)N[C@@H](Cc1c[nH]c2ccccc12)C(=O)N[C@@H](CC(C)C)C(=O)N[C@@H](CCC(=O)O)C(=O)N[C@@H](CO)C(=O)N[C@@H](C)C(N)=O [Compound I]
- Patients with severe AE ([1]; Cmp I Total): 8 (22.2) N (%)
- Patients with AE leading to discontinuation of trial drug ([1]; Weekly 4): 3 (23.1) N (%)
- Patients with any AE ([1]; Weekly 4): 13 (100.0) N (%)
- Patients with investigator defined drug-related AE ([1]; Weekly 4): 13 (100.0) N (%)
- Patients with other significant AEs (ICH E3) ([1]; Weekly 4): 4 (30.8) N (%)
- Patients with serious AE ([1]; Weekly 4): 0 N (%)
- Patients with severe AE ([1]; Weekly 4): 4 (30.8) N (%)
- drug-related gastrointestinal disorders, frequency ([1]; Weekly 4): 92.3%
- Patients with AE leading to discontinuation of trial drug ([1]; Weekly 5): 2 (18.2) N (%)
- Patients with any AE ([1]; Weekly 5): 11 (100.0) N (%)
- Patients with investigator defined drug-related AE ([1]; Weekly 5): 11 (100.0) N (%)
- Patients with other significant AEs (ICH E3) ([1]; Weekly 5): 3 (27.3) N (%)
- Patients with serious AE ([1]; Weekly 5): 0 N (%)
- Patients with severe AE ([1]; Weekly 5): 4 (36.4) N (%)
- drug-related gastrointestinal disorders, frequency ([1]; Weekly 5): all patients
- proportion of patients who withdrew from up-titration ([1]; Weekly 5): 36.4%
- Patients with AE leading to discontinuation of trial drug ([1]; Weekly 6 (twice weekly)): 1 (8.3) N (%)
- Patients with any AE ([1]; Weekly 6 (twice weekly)): 11 (91.7) N (%)
- Patients with investigator defined drug-related AE ([1]; Weekly 6 (twice weekly)): 11 (91.7) N (%)
- Patients with other significant AEs (ICH E3) ([1]; Weekly 6 (twice weekly)): 1 (8.3) N (%)
- Patients with serious AE ([1]; Weekly 6 (twice weekly)): 0 N (%)
- Patients with severe AE ([1]; Weekly 6 (twice weekly)): 0 N (%)
- drug-related gastrointestinal disorders, frequency ([1]; Weekly 6 (twice weekly)): 58.3%
- proportion of patients who withdrew from up-titration ([1]; Weekly 6 (twice weekly)): 8.3%
- proportion of patients who withdrew from up-titration ([1]; all Compound I groups): 22.2%
- ECG analyses, heart rate ([1]; all Compound I treatment groups): increases in heart rate
- healthy subjects with mild loss of appetite ([2]; single dose 0.3 mg): 33%
- healthy subjects with mild loss of appetite ([2]; single dose 0.5 mg): 50%
- subjects with moderate to severe nausea for 1 to 6 days and mild to severe vomiting ([2]; single dose 1.2 mg): 83%
- AUC(0-t) ([3]; 0.6 mg, Ex.2 DG2 weekly, wk 1, 0.6 mg sc): 2.02 µM·h
- AUC(0-t) ([3]; 0.6 mg, Ex.2 DG3 twice weekly, wk 3, 0.6 mg sc): 1.64 µM·h
- AUC(0-t) ([3]; 0.9 mg, Ex.2 DG1 weekly, wk 3, 0.9 mg sc): 3.62 µM·h
- AUC(0-t) ([3]; 0.9 mg, Ex.2 DG3 twice weekly, wk 5, 0.9 mg sc): 3.52 µM·h
- AUC(0-t) ([3]; 0.9 mg, Ex.2 DG3 twice weekly, wk 6, 0.9 mg sc): 3.83 µM·h
- AUC(0-t) ([3]; 1.2 mg, Ex.2 DG2 weekly, wk 3, 1.2 mg sc): 4.93 µM·h
- AUC(0-t) ([3]; 1.2 mg, Ex.2 DG3 twice weekly, wk 7, 1.2 mg sc): 4.69 µM·h
- AUC(0-t) ([3]; 1.5 mg, Ex.2 DG1 weekly, wk 5, 1.5 mg sc): 6.74 µM·h
- AUC(0-t) ([3]; 1.5 mg, Ex.2 DG3 twice weekly, wk 9, 1.5 mg sc): 6.72 µM·h
- AUC(0-t) ([3]; 1.8 mg, Ex.2 DG1 weekly, wk 6, 1.8 mg sc): 8.41 µM·h
- AUC(0-t) ([3]; 1.8 mg, Ex.2 DG1 weekly, wk 7, 1.8 mg sc): 9.01 µM·h
- AUC(0-t) ([3]; 1.8 mg, Ex.2 DG1 weekly, wk 9, 1.8 mg sc): 8.52 µM·h
- AUC(0-t) ([3]; 1.8 mg, Ex.2 DG1 weekly, wk 11, 1.8 mg sc): 8.83 µM·h
- AUC(0-t) ([3]; 1.8 mg, Ex.2 DG1 weekly, wk 13, 1.8 mg sc): 9.22 µM·h
- AUC(0-t) ([3]; 1.8 mg, Ex.2 DG1 weekly, wk 15, 1.8 mg sc): 9.5 µM·h
- AUC(0-t) ([3]; 1.8 mg, Ex.2 DG1 weekly, wk 16, 1.8 mg sc): 9.62 µM·h
- AUC(0-t) ([3]; 1.8 mg, Ex.2 DG2 weekly, wk 5, 1.8 mg sc): 6.64 µM·h
- AUC(0-t) ([3]; 1.8 mg, Ex.2 DG2 weekly, wk 6, 1.8 mg sc): 7.55 µM·h
- AUC(0-t) ([3]; 1.8 mg, Ex.2 DG3 twice weekly, wk 11, 1.8 mg sc): 8.21 µM·h
- AUC(0-t) ([3]; 2.1 mg, Ex.2 DG3 twice weekly, wk 13, 2.1 mg sc): 9.78 µM·h
- AUC(0-t) ([3]; 2.4 mg, Ex.2 DG2 weekly, wk 7, 2.4 mg sc): 9.83 µM·h
- AUC(0-t) ([3]; 2.4 mg, Ex.2 DG3 twice weekly, wk 15, 2.4 mg sc): 10.2 µM·h
- AUC(0-t) ([3]; 2.4 mg, Ex.2 DG3 twice weekly, wk 16, 2.4 mg sc): 11.2 µM·h
- AUC(0-t) ([3]; 3 mg, Ex.2 DG2 weekly, wk 9, 3.0 mg sc): 13.7 µM·h
- AUC(0-t) ([3]; 3.6 mg, Ex.2 DG2 weekly, wk 11, 3.6 mg sc): 16.4 µM·h
- AUC(0-t) ([3]; 4.2 mg, Ex.2 DG2 weekly, wk 13, 4.2 mg sc): 19.3 µM·h
- AUC(0-t) ([3]; 4.8 mg, Ex.2 DG2 weekly, wk 15, 4.8 mg sc): 22.9 µM·h
- deaths ([4]; Ex.3, whole trial): no deaths
- AEs of special interest, percentage of patients ([4]; in vivo): (0.3) interest %
- cases of pancreatitis ([4]; in vivo): no cases of pancreatitis
